{"source": "patent EP2886105B1", "about": "“Controlled-release formulations” (CAMURUS AB, priority 2007, dated 2018)", "key": {"[1]": {"experiment": "In vivo release of SOM after subcutaneous injection, plasma SOM by ELISA", "set-up": "species or system rat", "description": "A liquid lipid formulation comprising SPC/GDO/EtOH = 44/44/12 wt% was prepared as described in Example 1.\nA freeze-dried powder of SOM (MW ca 1.6 kDa) and TRE was prepared in the same way as in Example 4 giving a SOM (free base)-to-TRE weight ratio of 1:2.5.\nThe freeze-dried powder was added to the lipid formulation such that the final SOM (free base) concentration in the formulation was 2 wt% (ca 20 mg/mL) followed by end-over-end rotation for 1 day. […] The final filter-sterilized formulation was then injected subcutaneously to rats (male Sprague-Dawley).\nIn the in vivo rat model the release of SOM was followed during 14 days. The formulations were administered subcutaneously between the scapulae by using a syringe (23G, 0.6mm × 25mm). The SOM concentration in the rat plasma was quantified using a commercial ELISA kit (S-1164, Bachem/Peninsula Laboratories, LOQ = 0.03 ng/mL). The dose was 20 mg/kg and dose volume was 1 mL/kg corresponding to a drug load of 2.0wt% SOM (free base)."}, "[2]": {"details": "natural Somatostatin; cited from earlier work"}, "[3]": {"details": "cited from earlier work"}}, "note": "Where a name gives a salt, the structure may show the parent alone.", "data": [{"smiles": "C[C@H](N)C(=O)NCC(=O)N[C@H]1CSSC[C@@H](C(=O)O)NC(=O)[C@H](CO)NC(=O)[C@H]([C@@H](C)O)NC(=O)[C@H](Cc2ccccc2)NC(=O)[C@H]([C@@H](C)O)NC(=O)[C@H](CCCCN)NC(=O)[C@H](Cc2c[nH]c3ccccc23)NC(=O)[C@H](Cc2ccccc2)NC(=O)[C@H](Cc2ccccc2)NC(=O)[C@H](CC(N)=O)NC(=O)[C@H](CCCCN)NC1=O", "note": "[SOM, Somatostatin, acetate salt]", "values": [{"measurement": "Release profile", "setting": "[1]; rat plasma, subcutaneous, 20 mg/kg SOM lipid formulation, low initial release", "value": "without a burst effect"}, {"measurement": "SOM levels higher than the endogenous SOM levels (factor)", "setting": "[1]; rat plasma, versus placebo formulation, depending on time point, over at least 14 days, s.c. 20 mg/kg", "value": "2-9"}, {"measurement": "Duration of release", "setting": "[1]; rat, subcutaneous, 20 mg/kg SOM lipid formulation", "value": "at least 14 days"}, {"measurement": "biological half-life", "setting": "[2]", "value": "1-3 minutes"}, {"measurement": "half-life of SOM in rat plasma", "setting": "[3]", "value": "a few minutes"}]}]}
